Here are results for three molecules from US20170290820A1, “METHODS AND COMPOSITIONS FOR TREATING BETA-THALASSEMIA AND SICKLE CELL DISEASE” (Academia Sinica, priority 2013, published 2017).

Where “and” joins values, the source holds several entries; their conditions need not be identical. Identical values can stand only once. Counter-ions that a name gives are not always drawn.

One data set has as its system γ globin gene. The data set is described as follows: γ globin gene induction by relative quantitative RT-PCR. Type of data set: cell-based, human. The note with it: for γ globin induction (IC50): Table 3, γ globin mRNA induction fold at the compound's IC50, 3 days; for EC (μM) induction of HU IC50 (2.3 fold): concentration inducing γ globin gene expression 2.3-fold, primary human erythroid cells. The method, then:
(§1) After 3 days of drug-treatment, the total RNA was extracted by RNA Spin mini kit (Ge-Healthcare) and reverse-transcription was performed by using superscript II (Invitrogen) followed the manufactors instruction. Quantitative PCR was performed on LightCycler with using STBR green master mix followed the manufactors instruction (Roche). The absolute quantitative RT-PCR was calculated by the standard curve with supplying a known copy number of plasmids. The relative quantitative RT-PCR was normalized to the expression levels of the β-actin and compared to the mock control.
To search for new agents, which are capable of inducing the expression of γ globin, a series of naphthalimide derivatives with various substituent(s) on the naphthalene ring and the heterocyclic N-atom (A1-A14, B1-B4, C1-C5, D1, and E1-E3, FIG. 2) were synthesized. These derivatives were subjected to evaluating the γ globin induction abilities in differentiated peripheral blood mononuclear cells (PBMCs). The PBMCs isolated from the peripheral blood of donors were expanded and differentiated for a total of 14 days in a two-phase liquid culture. The resulted primary erythoid cells were then treated with different dosages of naphthalimide derivatives individually for another 3 days. The expression levels of the endogenous γ globin gene were estimated by relative quantitative RT-PCR and the proliferation rates of these cells were examined by AlamarBlue cell viability assay. […]; 2-4.5-folds induction of the γ globin gene expression in the compounds-treated cells (FIG. 3).

Data set [1] in a line: solubility in DMSO and H2O. It counts as physicochemical. The note with it: for water-solubility (in words): comparison; for solubility: water, H2O, read-out: solubility H2O.
The test system of data set [2] is primary human erythroid cells. The data set is described as follows: AlamarBlue cell viability / proliferation assay. The note with it: 3 days.
The next data set has as its system β globin. The data set is described as follows: absolute quantitative RT-PCR, proportion of β globin mRNA. It counts as cell-based. The conditions noted are these: primary human erythroid cells, at IC50, 3 days; mock 88.8%; listed as SS-2394, hydrochloride. The method, then:
as §1
(§2) To evaluate the specificity of S51021, SS-2394, HU, and NaB in mediating globin genes activation, the amounts of individual P3-liked globin mRNAs were measured by absolute quantitative RT-PCR.
(§3) The primary human erythroid cells were treated with HU (145.9 μM), NaB (221.6 μM), S51021 (21.8 μM) or SS2394 (2.3 μM) for 3 days, and the expression levels of each globin mRNA were estimated by absolute quantitative RT-PCR analysis. The proportions of individual 3-like globin chains among the total 3-like globin mRNA are shown. Data are presented as the mean±SEM, N=3.

A further data set relates to δ globin. The data set is described as follows: absolute quantitative RT-PCR, proportion of δ globin mRNA. It counts as cell-based. The note with it: primary human erythroid cells, at IC50, 3 days; mock 3.3%. The method, then: as §1, §2, §3
Another data set has as its system ε globin. The data set is described as follows: absolute quantitative RT-PCR, proportion of ε globin mRNA. Type of data set: cell-based. The conditions noted are these: primary human erythroid cells, at IC50, 3 days; mock 0.0%. The procedure: as §1, §2, §3
A short description of data set [3]: stability observed during biological evaluation. It counts as physicochemical. The note with it: deaminated or converted into C6-hydroxy derivative. An excerpt: To optimize the biological activity and reduce the cytotoxicity of SS-2394 by structural modification, the core structure of naphthalimide (I) was modified by alternating the carbonyl function of benzo[de]isoquinoline-1,3(2H)-dione; reducing the carbonyl function to hydroxyl derivatives (II), which can be further converted into dehydroxylated derivatives III and IV (Scheme 1). During biological evaluation of SS-2394, it was observed that the C6-amino function in SS-2394 was unstable and can be deaminated or converted into the corresponding C6-hydroxy derivatives. Therefore, various substituent R to the C6 of benzo[de]isoquinolin ring were introduced. The substituent R can be H, NH2, NHCOCH3, NHR′, NR′2; wherein R′ can be a C1 to C5 alkyl group. The new compounds bear a N,N-dimethylaminoethyl hydrophilic side chain, which can form acid salts with various inorganic acids or organic acids. Thus, the compounds are water soluble compounds and are suitable for biological application.

[4] abbreviates: Table 1a, concentration reducing proliferation rate of primary human erythroid cells by 50%.
The mark [5] stands for this setting: Table 3, primary human erythroid cells, proliferation reduced by 50%.

On to `CN(C)CCN1C(=O)c2cccc3cccc(c23)C1=O` [Compound B1, N-(2-Dimethylamino-ethyl)-1,8-naphthalimide hydrochloride], for which, in the data set on γ globin gene, the “γ globin induction (IC50)” value is listed as 4.1 fold and the “EC (μM) induction of HU IC50 (2.3 fold)” value amounted to 4.7 µM. For the same molecule, in data set [1], the “water-solubility (in words)” value is “greatly improved water-solubility” and the solubility is above 100 mM. In data set [2] (setting [4]), this molecule returned an IC50 of 10.7 µM. Besides, the IC50 in data set [2] (setting [5]) was determined as 10.7 µM.

As to `CN(C)CCCN1C(=O)c2cccc3c(N)ccc(c23)C1=O` [Compound E3, N-(3-dimethylamino-propyl)-4-amino-1,8-naphthalimide hydrochloride], in the data set with γ globin gene, the “γ globin induction (IC50)” value was found to be 2.7 fold and the “EC (μM) induction of HU IC50 (2.3 fold)” value came out at 7.4 µM. In data set [1], the “water-solubility (in words)” value is given as “greatly improved water-solubility” and the solubility is above 100 mM. The same molecule came in with an IC50 in data set [2] (setting [4]) of 11.2 µM. Further, in data set [2] (setting [5]), half-maximal inhibition (IC50) required 11.2 µM.

In the case of `CN(C)CCN1C(=O)c2cccc3c(N)ccc(c23)C1=O` [Compound E2, N-(2-dimethylamino-ethyl)-4-amino-1,8-naphthalimide hydrochloride], in the data set with β globin, the “β globin proportion of total β-like globin mRNA” value is 82.3% and 82.3 ± 1.1%. Besides, the “γ globin induction (IC50)” value in the data set with γ globin gene (hydrochloride) worked out at 4.0 fold. In addition, the “EC (μM) induction of HU IC50 (2.3 fold)” value with γ globin gene turned out to be 0.8 µM. For the same molecule, the “δ globin proportion of total β-like globin mRNA” value with δ globin came to 5.5 ± 0.4%. In addition, the “ε globin proportion of total β-like globin mRNA” value with ε globin came to 0.5 ± 0.1%. Further, the “water-solubility (in words)” value is reported as “greatly improved water-solubility” in data set [1] (hydrochloride) and “higher water-solubility than that of the parental compound S51021” in data set [1] (listed as SS-2394, hydrochloride). For the same molecule, the solubility in data set [1] was above 100 mM. The molecule further showed an IC50 in data set [2] (setting [4]) of 2.3 µM. Moreover, the “stability of the C6-amino function” value in data set [3] is recorded as “unstable”.
